This passage reports IC50 and Papp results from ChEMBL document CHEMBL1139703, “Synthesis and structure-activity relationships of 3-phenyl-2-propenamides as inhibitors of glycogen phosphorylase a” (Bioorg Med Chem Lett, 2006).

A word on the IC50: it is the concentration needed to halve the response being measured.

One data set addresses T1, Glycogen phosphorylase, liver form (Homo sapiens, UniProt P06737).
T1 sequence (P06737 whole entry): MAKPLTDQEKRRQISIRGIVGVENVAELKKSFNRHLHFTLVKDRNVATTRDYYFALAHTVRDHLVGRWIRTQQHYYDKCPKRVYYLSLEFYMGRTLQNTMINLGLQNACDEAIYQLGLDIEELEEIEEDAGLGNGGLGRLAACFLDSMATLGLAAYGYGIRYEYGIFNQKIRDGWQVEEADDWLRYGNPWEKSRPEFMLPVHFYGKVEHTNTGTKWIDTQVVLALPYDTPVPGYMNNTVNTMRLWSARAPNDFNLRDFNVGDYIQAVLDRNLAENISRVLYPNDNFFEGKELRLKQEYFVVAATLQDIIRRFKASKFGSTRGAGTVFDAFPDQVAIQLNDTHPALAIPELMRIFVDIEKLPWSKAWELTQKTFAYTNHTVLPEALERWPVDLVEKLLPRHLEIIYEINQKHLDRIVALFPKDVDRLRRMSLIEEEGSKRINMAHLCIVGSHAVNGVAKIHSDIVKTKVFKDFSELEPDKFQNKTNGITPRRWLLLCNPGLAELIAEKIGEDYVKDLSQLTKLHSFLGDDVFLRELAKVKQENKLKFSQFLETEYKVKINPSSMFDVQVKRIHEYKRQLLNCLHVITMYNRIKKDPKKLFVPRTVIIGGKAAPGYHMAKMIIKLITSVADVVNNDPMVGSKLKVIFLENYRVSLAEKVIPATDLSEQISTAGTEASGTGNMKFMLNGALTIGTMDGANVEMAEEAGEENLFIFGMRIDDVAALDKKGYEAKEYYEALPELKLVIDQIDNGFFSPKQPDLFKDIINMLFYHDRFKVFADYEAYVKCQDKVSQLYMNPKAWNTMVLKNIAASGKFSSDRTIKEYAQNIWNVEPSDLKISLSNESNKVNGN
Briefly: Inhibition of human liver GPa in presence of glucose.
Conditions: not given
On to `O=C(/C=C/c1ccc(Cl)c(Cl)c1)NCCCCCN1CCCN(C(=O)Nc2ccc(Cl)c(C(F)(F)F)c2)CC1`, for which the IC50 was 1.6 µM.
For `O=C(/C=C/c1ccc(Cl)c(Cl)c1)NCCCCCN1CCN(C(=O)Nc2ccc(Cl)cc2)CC1`, the IC50 amounted to 100 µM.
Turning to `O=C(/C=C/c1ccc(Cl)c(Cl)c1)NCCCCN1CCN(C(=O)Nc2ccc(Cl)c(Cl)c2)CC1`, the half-maximal inhibitory concentration (IC50) turned out to be 0.71 µM.
Same read-out and setting: under `Cc1ccc(NC(=O)N2CCN(CCCCCNC(=O)/C=C/c3ccc(Cl)c(Cl)c3)CC2)cc1` stands 100 µM.
The same measure, in the same setting: under `O=C(/C=C/c1ccc(Cl)c(Cl)c1)NCCCCCN1CCN(C(=O)Nc2ccc(Cl)c(Cl)c2)CC1` stands 0.94 µM; under `O=C(/C=C/c1ccccc1)NCCCCN1CCCN(C(=O)Nc2ccc(Cl)c(Cl)c2)CC1`, 0.17 µM; under `O=C(/C=C/c1ccc(Cl)c(Cl)c1)NCCCCCN1CCN(C(=O)Nc2ccc3c(c2)OCO3)CC1`, 70 µM.
`O=C(/C=C/c1ccc(Cl)c(Cl)c1)NCCCCCCN1CCN(C(=O)Nc2ccc(Cl)c(Cl)c2)CC1`: the IC50 came out at 0.44 µM.
Consider `O=C(/C=C/c1ccc(Cl)c(Cl)c1)NCCN1CCN(C(=O)Nc2ccc(Cl)c(Cl)c2)CC1`, for which the IC50 was determined as 90 µM.
For the molecule `O=C(/C=C/c1ccc(Cl)c(Cl)c1)NCCCCCN1CCCN(C(=O)Nc2cccc(Cl)c2)CC1`, the IC50 stood at 1.3 µM.
The same measure, in the same setting: under `O=C(/C=C/c1ccc(Cl)c(Cl)c1)NCCCCCCN1CCCN(C(=O)Nc2ccc(Cl)c(Cl)c2)CC1` stands 24 µM.
The same measure, in the same setting: under `O=C(/C=C/c1ccc(Cl)c(Cl)c1)NCCCCCN1CCCN(C(=O)Nc2ccc(Cl)c(Cl)c2)CC1` stands 0.47 µM.
Take `O=C(/C=C/c1ccc(Cl)c(Cl)c1)NCCCCCN1CCN(C(=O)Nc2cccc(Cl)c2)CC1`: the IC50 is 51 µM.
Same read-out and setting: next, `O=C(/C=C/c1ccc(Cl)c(Cl)c1)NCCCCCN1CCCN(C(=O)Nc2ccc(F)c(Cl)c2)CC1`: 0.72 µM; `O=C(/C=C/c1ccc(Cl)c(Cl)c1)NCCN1CCCN(C(=O)Nc2ccc(Cl)c(Cl)c2)CC1`: 100 µM; `O=C(/C=C/c1ccc(Cl)c(Cl)c1)NCCCCCN1CCC(C(=O)Nc2ccc(Cl)c(Cl)c2)CC1`: 0.63 µM.
Same read-out and setting: under `O=C(/C=C/c1ccc(Cl)c(Cl)c1)NCCCCCN1CCCN(C(=O)Nc2ccc(Cl)cc2)CC1` stands 51 µM; under `O=C(/C=C/c1ccc(Cl)c(Cl)c1)NCCCCCN1CCN(C(=O)Nc2ccc(F)c(Cl)c2)CC1`, 0.98 µM; under `Cc1ccc(NC(=O)N2CCCN(CCCCCNC(=O)/C=C/c3ccc(Cl)c(Cl)c3)CC2)cc1`, 100 µM.
On the same count and under the same terms, under `O=C(/C=C/c1ccc(Cl)c(Cl)c1)NCCCCCN1CCN(C(=O)Nc2ccc(Cl)c(C(F)(F)F)c2)CC1` stands 51 µM.
Turning to `COc1cccc(NC(=O)N2CCN(CCCCCNC(=O)/C=C/c3ccc(Cl)c(Cl)c3)CC2)c1`, the IC50 was 100 µM.
The same measure, in the same setting: under `O=C(/C=C/c1ccc(Cl)c(Cl)c1)NCCCN1CCN(C(=O)Nc2ccc(Cl)c(Cl)c2)CC1` stands 0.32 µM; under `COc1cccc(NC(=O)N2CCCN(CCCCCNC(=O)/C=C/c3ccc(Cl)c(Cl)c3)CC2)c1`, 10 µM.

Test system in another data set: not listed separately
The experiment in a line: Permeability in artificial phospholipid bilayer membrane at pH 7.05. Format: ADME. Particulars: not told, read-out: permeability.
Take `O=C(/C=C/c1ccc(Cl)c(Cl)c1)NCCCCCN1CCC(C(=O)Nc2ccc(Cl)c(Cl)c2)CC1`: the Papp was found to be 9 ×10⁻⁶ cm/s.

The next data set has as its target T1, Glycogen phosphorylase, liver form. Briefly: Inhibition of human liver GPa in absence of glucose.
Conditions: not given
Regarding `O=C(/C=C/c1ccc(Cl)c(Cl)c1)NCCCCCN1CCN(C(=O)Nc2ccc(Cl)c(Cl)c2)CC1`, the IC50 was over 20 µM.
